Data: patent publication US20070037752A1, “Novel alanyl-amino peptidase inhibitors for functionally influencing different cells and treating immunological, inflammatory, neuronal, and other diseases” (priority 2003, published 2007)

Tests used:
female Balb/c mice [1] = assay: Dextran sulfate-induced colitis, disease score; assay type: in vivo; details: 10 μg single inhibitor i.p., three days from day 5, score on day 7; insignificant
Description: Therapeutic Effect of the Combined Inhibition of the Alanyl Aminopeptidases and of Enzymes Having an Analogous Effect as Well as of Dipeptidyl Peptidase IV and of Enzymes Having an Analogous Effect on the Dextran Sulfate-Induced Colitis in Mice (Animal Model of Chronic Inflammatory Intestinal Diseases)
An inflammation relating predominantly to the colon (equivalent to the disease of human Colitis ulcerosa) was induced by an administration of 3% sodium dextran sulfate dissolved in the drinking water of female Balb/c mice having an age of 8 weeks. […] The peptidase inhibitors (or phosphate-buffered saline as a placebo) were administered intraperitoneally from day 5 on for three successive days. The degree of the disease was determined in accordance with an acknowledged evaluation system (score). The following parameters were considered when determining the score: Consistency of the excrements (solid=0 points (pts.); pasty=2 pts.; liquid/like diarrhea=4 pts.); detection of blood in the excrements (no blood=0 pts.; occult blood=2 pts.; evident=4 pts.); loss of weight (0-5%=0 pts.; 5 to 10%=1 pts.; 10-15%=2 pts.; 15-20%=3 pts.; >20%=4 pts.). Healthy animals have a score value of 0 pts.; the maximum value are 12 pts. From 10 pts. on, the disease is lethal. In the course of the disease, the score value increased due to the change of the excrement parameters. […]

female Balb/c mice [2] = assay: Ovalbumine-induced asthma bronchiale, pulmonal function (EF50) and eosinophilia; assay type: in vivo; details: i.p. 0.1 mg of each inhibitor, days 28-35; FIG. 3 A
Description: Therapeutic effect of the combined inhibition of alanyl aminopeptidases and of enzymes having an analogous effect as well as of dipeptidyl peptidase IV and of enzymes having an analogous effect on the ovalbumine-induced asthma bronchiale ib mice (animal model of human asthma bronchiale).
Female Balb/c mice were sensitized for the antigen ovalbumine capable of inducing asthma bronchiale by an intreperitoneal administration of 10 μg ovalbumine on the days 0, 14 and 21. On day 27/28, the animals received a boostering dose of ovalbumine by inhalation [vD3]. After an intreperitoneal administration of the peptidase inhibitors on the days 28-35, there was effected an intranasal ovalbumine challenge on day 35, as well as a check of the allergic premature reaction via the pulmonal function. There were measured: the average expiratory flux (EF50), the tidal volume, the respiration rate and the minute volume as well as the number of eosinophilic granulocytes in the bronchoalveolar lavage.
8 to 10 animals were used per experimental group. By way of example, in FIG. 3 A, there is summarized the effect of the peptidase inhibitors on the reduction of the EF50 value. […] Group E represents animals which were not sensitized by OVA, but which were subjected—beyond that—all procedures to which the animal groups A to D were subjected.

| Compound | reduction of the heaviness of the disease (colitis score) (female Balb/c mice [1]) [%] | effect on the reduction of the EF50 value (pulmonal function) (female Balb/c mice [2]) |
| --- | --- | --- |
| CCCCC[C@H](CC(=O)NO)C(=O)N[C@H](C(=O)N1CCC[C@H]1CO)C(C)C [Actinonine] | −16.5 | showed a therapeutic effect |
| N[C@@H](CCCCNC(=O)OCc1ccc([N+](=O)[O-])cc1)C(=O)N1CCCC1 [Lys[Z(NO2)]pyrrolidide] | −12.3 | showed a therapeutic effect |
